Source: US20170198318A1, “METHOD OF MANUFACTURING METHOXY-ISOFLAVONES BY BIOTRANSFORMATION AND USE THEREOF” (NATIONAL UNIVERSITY OF TAINAN, priority 2016, published 2017)

Assays:
melanogenesis = details: Arch. Pharm. Res. 2010; cited from earlier work
[1] = test system: Mouse B16 melanoma cells (4A5); experiment: Cell viability (MTT method) in B16 cells; assay type: cell-based; details: under a concentration of 25 μM, with 400 μM IBMX, 2 days
Experimental: The ranges of non-toxic concentrations of the compounds toward the B16 cells was first determined with the 3-(4,5-dimethylthiazol-2-yl)-2,5-diphenyltetrazolium bromide (MTT) method. Mouse B16 melanoma cells (4A5) was purchased from the Bioresources Collection and Research Center (BCRC, Food Industry Research and Development Institute, Hsinchu, Taiwan). Determinations of cell viability and melanin content were performed as previously reported [Appl. Microbiol. Biotechnol. 2007; 73:1169-1172] and described briefly below. Dulbecco's modified Eagle's medium (DMEM) containing 10% (v/v) fetal bovine serum was used to cultivate mouse B16 cells, which were incubated at 37° C. in a humidified, CO2-controlled (5%) incubator. After 1 day of incubation, the cells were treated with tested drugs in the presence of a melanogenesis stimulation agent (400 μM of 3-isobutyl-1-methylxanthine (IBMX)) for another 2 days. Then, the drug-treated cells were harvested and the cell viability and melanin content were measured according to the previous study [Curr. Pharma. Biotechnol. 2015; 16:1085-1093]. […]
The X axis includes different treatment conditions, and the Y axis of the results represents cell survival rate or relative melanin content. Both of the cell survival rate and the relative melanin content are expressed as percentage of control (% of control). […]

[2] = test system: Mouse B16 melanoma cells (4A5); experiment: Melanin content / inhibition of melanogenesis in IBMX-stimulated B16 cells; assay type: cell-based
Experimental: The ranges of non-toxic concentrations of the compounds toward the B16 cells was first determined with the 3-(4,5-dimethylthiazol-2-yl)-2,5-diphenyltetrazolium bromide (MTT) method. Mouse B16 melanoma cells (4A5) was purchased from the Bioresources Collection and Research Center (BCRC, Food Industry Research and Development Institute, Hsinchu, Taiwan). Determinations of cell viability and melanin content were performed as previously reported [Appl. Microbiol. Biotechnol. 2007; 73:1169-1172] and described briefly below. Dulbecco's modified Eagle's medium (DMEM) containing 10% (v/v) fetal bovine serum was used to cultivate mouse B16 cells, which were incubated at 37° C. in a humidified, CO2-controlled (5%) incubator. After 1 day of incubation, the cells were treated with tested drugs in the presence of a melanogenesis stimulation agent (400 μM of 3-isobutyl-1-methylxanthine (IBMX)) for another 2 days. Then, the drug-treated cells were harvested and the cell viability and melanin content were measured according to the previous study [Curr. Pharma. Biotechnol. 2015; 16:1085-1093]. In this experiment, cells only treated with IBXM is used as a negative control and cells treated with 20 μM danazol is used as a positive control.
The X axis includes different treatment conditions, and the Y axis of the results represents cell survival rate or relative melanin content. Both of the cell survival rate and the relative melanin content are expressed as percentage of control (% of control). […] Accordingly, the 25 μM was used as the maximum concentration in the determination of the inhibition of melanogenesis.
Pharm. Res. 2010; 33:1959-19].

[3] = non-toxic concentrations, 400 μM IBMX, 2 days

SMILES | melanogenesis inhibition (previously identified) (melanogenesis) | cytotoxicity (cell survival rate) [1] | inhibition of melanogenesis ([2]; 6.25 μM and 25 μM, compared with the control group) | activity at 25 µM ([2]; Mus musculus, 48 h, 25 μM, 400 μM IBMX, 2 days, read-out: melanin content (% of control)) | inhibition of melanogenesis compared with positive control danazol ([2]; danazol 20 μM) | inhibition of melanogenesis [2, 3] | inhibition of melanogenesis ([2]; non-toxic concentrations, 400 μM IBMX, 2 days, listed as 7,4′-dihydroxy-8-methoxy-isoflavone)
C#C[C@]1(O)CC[C@H]2[C@@H]3CCC4=Cc5oncc5C[C@]4(C)[C@H]3CC[C@@]21C [danazol] | potent melanogenesis inhibitor | – | – | – | – | – | –
COc1c(O)ccc2c(=O)c(-c3ccc(O)cc3)coc12 [compound (1), 7,4′-dihydroxy-8-methoxy-isoflavone] | – | did not exhibit cytotoxicity | show inhibition of melanogenesis | 63.5% | greater than that produced by danazol | dose-dependently inhibited melanogenesis | inhibitory effect on melanogenesis
COc1ccc2c(=O)c(-c3ccc(O)cc3)coc2c1O [compound (2), 8,4′-dihydroxy-7-methoxy-isoflavone] | – | did not exhibit cytotoxicity | – | – | – | dose-dependently inhibited melanogenesis | –
